Values joined by “and” are separate entries in the source; they are usually repeats but may differ in a detail not shown here. Identical values can stand only once.
How the values were obtained:
[1] = system: patients with early RA; experiment: AVERT trial: HAQ-DI response (≥0.3 points reduction from baseline); assay type: in vivo, human; settings: Month 12
[2] = system: patients with early RA; experiment: AVERT phase 3b randomized active-controlled trial: signs and symptoms (DAS-defined remission, other remission and ACR measures); assay type: in vivo, human
Experimental: Patients receiving oral corticosteroids were required to be on a stable dose (≤10 mg/day for ≥4 weeks) at initiation and to maintain that dose until Month 12.
All patients received concomitant folic acid therapy.
Patients with DAS28 (CRP)≥3.2 were discontinued.
For the purpose of this study, DAS-defined remission was DAS28 (CRP)<2.6.
Exploratory endpoints included: Other remission rates (Simplified Disease Activity Index [SDAI; ≤3.3], Clinical Disease Activity Index [CDAI; ≤2.8] and Boolean remission [28-joint tender joint count ≤1 and 28-joint swollen joint count ≤1 and patient global assessment of disease activity [0-10 cm]≤1 and high-sensitivity CRP≤1 mg/dL]), American College of Rheumatology (ACR) responses and Major Clinical Response (ACR 70 response for 6 months at any time period) in each arm.
Co-primary endpoints were tested in hierarchical fashion. […] All patients who discontinued prior to completing the treatment or withdrawal period were imputed as non-responders for the Month 12 or 18 analyses.
Endpoints of Disease Activity Score (DAS)-defined remission, SDAI remission, CDAI remission, Boolean remission, ACR 20/50/70 response and Major Clinical Response over time were summarized using descriptive statistics (with 95% confidence intervals at each time point).
For each treatment arm, a post hoc analysis was performed of mean baseline characteristics for patients who achieved DAS-defined remission at only Month 12 and at both Months 12 and 18, and of the proportions of patients who achieved DAS-defined remission based on these characteristics. An analysis of the overall treatment effect in mean change from baseline in DAS28 (CRP) (including data up to Month 12 of the treatment period) was performed for each treatment arm. Overall treatment effect and treatment differences between the three arms were obtained using a longitudinal repeated measures model including fixed categorical effects of treatment, months, and prior corticosteroid use as well as the continuous fixed covariate of baseline value. An unstructured covariance matrix was used to represent the correlation of the repeated measures within each subject.

[3] = treatment period, compared subgroups not stated

CN(Cc1cnc2nc(N)nc(N)c2n1)c1ccc(C(=O)N[C@@H](CCC(=O)O)C(=O)O)cc1 [MTX, methotrexate]
HAQ-DI Response (≥0.3), proportion of patients [1]: 44.0% and 51 (44.0) %
proportion of patients in DAS-defined remission (DAS28 [CRP]<2.6) at Month 12 ([2]; Month 12 of treatment period, patients with baseline DAS28 (CRP), discontinuations imputed as non-responders): 45.2%
proportion of patients in DAS-defined remission (DAS28 [CRP]<2.6) at both Months 12 and 18 ([2]; after withdrawal of all RA therapy at Month 12, only patients with DAS28 (CRP) available at baseline): 7.8%
patients remaining in DAS-defined remission at Month 18 ([2]; of the patients who entered the withdrawal period in DAS-defined remission at Month 12): 16.9%
Proportion of Patients with DAS-defined Remission (DAS28 [CRP] < 2.6) at Both Months 12 and 18 ([2]; post hoc subgroup: baseline DAS28 (CRP) >Median (5.4)): 3/55 (5.5) %
Proportion of Patients with DAS-defined Remission (DAS28 [CRP] < 2.6) at Both Months 12 and 18 ([2]; post hoc subgroup: baseline DAS28 (CRP) Missing): 0/1 (0) %
Proportion of Patients with DAS-defined Remission (DAS28 [CRP] < 2.6) at Both Months 12 and 18 ([2]; post hoc subgroup: baseline DAS28 (CRP) ≤Median (5.4)): 6/60 (10.0) %
Proportion of Patients with DAS-defined Remission (DAS28 [CRP] < 2.6) at Both Months 12 and 18 ([2]; post hoc subgroup: baseline Erosion >Median (4.5)): 3/50 (6.0) %
Proportion of Patients with DAS-defined Remission (DAS28 [CRP] < 2.6) at Both Months 12 and 18 ([2]; post hoc subgroup: baseline Erosion >Q1 (1.5)-Q2 (4.5)): 2/23 (8.7) %
Proportion of Patients with DAS-defined Remission (DAS28 [CRP] < 2.6) at Both Months 12 and 18 ([2]; post hoc subgroup: baseline Erosion >Q2 (4.5)-Q3 (8.5)): 2/23 (8.7) %
Proportion of Patients with DAS-defined Remission (DAS28 [CRP] < 2.6) at Both Months 12 and 18 ([2]; post hoc subgroup: baseline Erosion >Q3 (8.5)): 1/27 (3.7) %
Proportion of Patients with DAS-defined Remission (DAS28 [CRP] < 2.6) at Both Months 12 and 18 ([2]; post hoc subgroup: baseline Erosion Missing): 2/13 (15.4) %
Proportion of Patients with DAS-defined Remission (DAS28 [CRP] < 2.6) at Both Months 12 and 18 ([2]; post hoc subgroup: baseline Erosion ≤Median (4.5)): 4/53 (7.5) %
Proportion of Patients with DAS-defined Remission (DAS28 [CRP] < 2.6) at Both Months 12 and 18 ([2]; post hoc subgroup: baseline Erosion ≤Q1 (1.5)): 2/30 (6.7) %
Proportion of Patients with DAS-defined Remission (DAS28 [CRP] < 2.6) at Both Months 12 and 18 ([2]; post hoc subgroup: baseline HAQ-DI >Median (1.375)): 5/49 (10.2) %
Proportion of Patients with DAS-defined Remission (DAS28 [CRP] < 2.6) at Both Months 12 and 18 ([2]; post hoc subgroup: baseline HAQ-DI Missing): 0/11 (0) %
Proportion of Patients with DAS-defined Remission (DAS28 [CRP] < 2.6) at Both Months 12 and 18 ([2]; post hoc subgroup: baseline HAQ-DI ≤Median (1.375)): 4/56 (7.1) %
Proportion of Patients with DAS-defined Remission (DAS28 [CRP] < 2.6) at Both Months 12 and 18 ([2]; post hoc subgroup: baseline Osteitis >Median (0.5)): 3/49 (6.1) %
Proportion of Patients with DAS-defined Remission (DAS28 [CRP] < 2.6) at Both Months 12 and 18 ([2]; post hoc subgroup: baseline Osteitis >Q1 (0)-Q2 (0.5)): 0/5 (0) %
Proportion of Patients with DAS-defined Remission (DAS28 [CRP] < 2.6) at Both Months 12 and 18 ([2]; post hoc subgroup: baseline Osteitis >Q2 (0.5)-Q3 (5)): 2/26 (7.7) %
Proportion of Patients with DAS-defined Remission (DAS28 [CRP] < 2.6) at Both Months 12 and 18 ([2]; post hoc subgroup: baseline Osteitis >Q3 (5)): 1/23 (4.3) %
Proportion of Patients with DAS-defined Remission (DAS28 [CRP] < 2.6) at Both Months 12 and 18 ([2]; post hoc subgroup: baseline Osteitis Missing): 2/13 (15.4) %
Proportion of Patients with DAS-defined Remission (DAS28 [CRP] < 2.6) at Both Months 12 and 18 ([2]; post hoc subgroup: baseline Osteitis ≤Median (0.5)): 4/54 (7.4) %
Proportion of Patients with DAS-defined Remission (DAS28 [CRP] < 2.6) at Both Months 12 and 18 ([2]; post hoc subgroup: baseline Osteitis ≤Q1 (0)): 4/49 (8.2) %
Proportion of Patients with DAS-defined Remission (DAS28 [CRP] < 2.6) at Both Months 12 and 18 ([2]; post hoc subgroup: baseline Pain (100 mm VAS) >Median (62)): 2/45 (4.4) %
Proportion of Patients with DAS-defined Remission (DAS28 [CRP] < 2.6) at Both Months 12 and 18 ([2]; post hoc subgroup: baseline Pain (100 mm VAS) Missing): 0/11 (0.0) %
Proportion of Patients with DAS-defined Remission (DAS28 [CRP] < 2.6) at Both Months 12 and 18 ([2]; post hoc subgroup: baseline Pain (100 mm VAS) ≤Median (62)): 7/60 (11.7) %
Proportion of Patients with DAS-defined Remission (DAS28 [CRP] < 2.6) at Both Months 12 and 18 ([2]; post hoc subgroup: baseline Synovitis >Median (4.5)): 3/56 (5.4) %
Proportion of Patients with DAS-defined Remission (DAS28 [CRP] < 2.6) at Both Months 12 and 18 ([2]; post hoc subgroup: baseline Synovitis >Q1 (2)-Q2 (4.5)): 1/23 (4.3) %
Proportion of Patients with DAS-defined Remission (DAS28 [CRP] < 2.6) at Both Months 12 and 18 ([2]; post hoc subgroup: baseline Synovitis >Q2 (4.5)-Q3 (8.5)): 1/30 (3.3) %
Proportion of Patients with DAS-defined Remission (DAS28 [CRP] < 2.6) at Both Months 12 and 18 ([2]; post hoc subgroup: baseline Synovitis >Q3 (8.5)): 2/26 (7.7) %
Proportion of Patients with DAS-defined Remission (DAS28 [CRP] < 2.6) at Both Months 12 and 18 ([2]; post hoc subgroup: baseline Synovitis Missing): 2/13 (15.4) %
Proportion of Patients with DAS-defined Remission (DAS28 [CRP] < 2.6) at Both Months 12 and 18 ([2]; post hoc subgroup: baseline Synovitis ≤Median (4.5)): 4/47 (8.5) %
Proportion of Patients with DAS-defined Remission (DAS28 [CRP] < 2.6) at Both Months 12 and 18 ([2]; post hoc subgroup: baseline Synovitis ≤Q1 (2)): 3/24 (12.5) %
Proportion of Patients with DAS-defined Remission (DAS28 [CRP] < 2.6) at Both Months 12 and 18 ([2]; post hoc subgroup: symptom duration >6 Months): 2/39 (5.1) %
Proportion of Patients with DAS-defined Remission (DAS28 [CRP] < 2.6) at Both Months 12 and 18 ([2]; post hoc subgroup: symptom duration >Median (0.37 years)): 4/47 (8.5) %
Proportion of Patients with DAS-defined Remission (DAS28 [CRP] < 2.6) at Both Months 12 and 18 ([2]; post hoc subgroup: symptom duration ≤6 Months): 7/77 (9.1) %
Proportion of Patients with DAS-defined Remission (DAS28 [CRP] < 2.6) at Both Months 12 and 18 ([2]; post hoc subgroup: symptom duration ≤Median (0.37 years)): 5/69 (7.2) %
time with DAS28 (CRP) <2.6 during the treatment period (first value of 'x vs y') [2, 3]: 5.8 months
time with DAS28 (CRP) <2.6 during the treatment period (second value of 'x vs y') [2, 3]: 5.7 months

Source: patent publication US20200069772A1, “METHODS OF TREATING EARLY RHEUMATOID ARTHRITIS” (BRISTOL-MYERS SQUIBB COMPANY, priority 2014, published 2020)
